Assay results reported in patent publication US20250346585A1 (Alexion Pharmaceuticals, Inc., priority 2022, published 2025).

Biological target: Human complement C1s enzyme (Homo sapiens (Human), UniProt P09871)
Test: Human C1s enzyme assay
Type: biochemical
Conditions: Human C1s enzyme assay of Example 3; read-out: IC50 (Stars)
Procedure, shortened: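 IC50 derived by nonlinear regression of rate versus concentration, with rate taken from A405 kinetics (30 s intervals, 30 min) after adding 100 μM each Z-L-Lys-SBzl and DTNB. C1s from human serum, 1.16 nM, exposed to compound for 5 min at RT beforehand; buffer 50 mM Tris, 1 M NaCl, pH 7.5.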

Human complement C1s enzyme, sequence (P09871 438-688 limits assumed): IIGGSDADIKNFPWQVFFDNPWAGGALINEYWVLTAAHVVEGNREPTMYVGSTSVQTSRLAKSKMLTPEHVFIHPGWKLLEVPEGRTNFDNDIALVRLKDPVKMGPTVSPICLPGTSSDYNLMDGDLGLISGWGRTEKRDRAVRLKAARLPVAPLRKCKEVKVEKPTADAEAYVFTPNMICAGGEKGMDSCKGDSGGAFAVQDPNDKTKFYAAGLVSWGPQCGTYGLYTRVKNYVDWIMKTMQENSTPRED
Human complement C1s enzyme, sequence (P09871 16-437 partner limits assumed): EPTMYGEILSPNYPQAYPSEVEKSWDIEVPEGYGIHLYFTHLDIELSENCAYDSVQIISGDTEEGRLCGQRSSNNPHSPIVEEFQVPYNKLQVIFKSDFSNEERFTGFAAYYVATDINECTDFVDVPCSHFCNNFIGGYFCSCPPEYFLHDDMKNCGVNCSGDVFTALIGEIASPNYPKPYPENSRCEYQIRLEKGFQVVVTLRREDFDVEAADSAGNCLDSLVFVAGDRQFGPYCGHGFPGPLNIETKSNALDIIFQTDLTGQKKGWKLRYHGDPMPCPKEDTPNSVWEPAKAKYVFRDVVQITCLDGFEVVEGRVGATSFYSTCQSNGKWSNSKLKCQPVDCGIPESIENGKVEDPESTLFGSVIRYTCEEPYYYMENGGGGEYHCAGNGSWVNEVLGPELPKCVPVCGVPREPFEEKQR

| SMILES | IC50 [nM] |
| --- | --- |
| Cc1ccc2c(c1)-c1cc(C(=O)NCC(=O)N3CC4(C[C@H]3C(=O)N[C@H](C)c3cc(C(=N)N)cs3)OCCO4)ccc1C2(F)F [Compound 180, (S)—N—((R)-1-(4-carbamimidoylthiophen-2-yl)ethyl)-7-((9,9-difluoro-6-methyl-9H-fluorene-3-carbonyl)glycyl)-1,4-dioxa-7-azaspiro[4.4]nonane-8-carboxamide] | < 100 |
| Cc1ccccc1[C@H]1C[C@@H](C(=O)N[C@H](C)c2cc(C(=N)N)cs2)N(C(=O)CNC(=O)c2ccc(Oc3ccc(F)cc3)cc2)C1 [Compound 59, (2S,4R)—N—((R)-1-(4-carbamimidoylthiophen-2-yl)ethyl)-1-((4-(4-fluorophenoxy)benzoyl)glycyl)-4-(o-tolyl)pyrrolidine-2-carboxamide] | < 100 |
| Cc1cccc(C)c1-c1ccc(C(=O)NCC(=O)N2CC3(C[C@H]2C(=O)NCc2cc(C(=N)N)cs2)OCCO3)cc1 [Compound 197, (S)—N-((4-carbamimidoylthiophen-2-yl)methyl)-7-((2′,6′-dimethyl-[1,1′-biphenyl]-4-carbonyl)glycyl)-1,4-dioxa-7-azaspiro[4.4]nonane-8-carboxamide] | < 100 |
| C[C@@H](NC(=O)[C@@H]1CC2(CN1C(=O)CNC(=O)c1ccc3c(c1)-c1ccccc1C3(C)C)OCCO2)c1cc(C(=N)N)cs1 [Compound 94, (S)—N—((R)-1-(4-carbamimidoylthiophen-2-yl)ethyl)-7-((9,9-dimethyl-9H-fluorene-3-carbonyl)glycyl)-1,4-dioxa-7-azaspiro[4.4]nonane-8-carboxamide] | < 100 |
| O=C(NCC(=O)N1CC2(C[C@H]1C(=O)NCc1cc(-c3cc(C(F)(F)F)[nH]n3)cs1)OCCO2)c1ccc(Oc2ccc(F)cc2)cc1 [Compound 76, (S)-7-((4-(4-fluorophenoxy)benzoyl)glycyl)-N-((4-(5-(trifluoromethyl)-1H-pyrazol-3-yl)thiophen-2-yl)methyl)-1,4-dioxa-7-azaspiro[4.4]nonane-8-carboxamide] | > 1000 |
| C[C@@H](NC(=O)[C@@H]1CC2(CN1C(=O)CNC(=O)c1ccc3c(c1)-c1ccccc1C3F)OCCO2)c1cc(C(=N)N)cs1 (stereo partly drawn) [Compound 127, (8S)—N—((R)-1-(4-carbamimidoylthiophen-2-yl)ethyl)-7-((9-fluoro-9H-fluorene-3-carbonyl)glycyl)-1,4-dioxa-7-azaspiro[4.4]nonane-8-carboxamide] | < 100 |
| C[C@@H](NC(=O)[C@@H]1CC2(CN1C(=O)CNC(=O)c1ccc3c(c1)-c1ccccc1C3(F)F)OCCO2)c1cc(-c2nnc[nH]2)cs1 [Compound 130, (S)—N—((R)-1-(4-(4H-1,2,4-triazol-3-yl)thiophen-2-yl)ethyl)-7-((9,9-difluoro-9H-fluorene-3-carbonyl)glycyl)-1,4-dioxa-7-azaspiro[4.4]nonane-8-carboxamide] | 100 to 1000 |

Further lines, results first:

| IC50 [nM] | SMILES |
| --- | --- |
| < 100 | C[C@@H](NC(=O)[C@@H]1C[C@H](C2CCCCC2)CN1C(=O)CNC(=O)c1ccc2c(c1)-c1ccccc1C2(F)F)c1cc(C(=N)N)cs1 [Compound 98, (2S,4R)—N—((R)-1-(4-carbamimidoylthiophen-2-yl)ethyl)-4-cyclohexyl-1-((9,9-difluoro-9H-fluorene-3-carbonyl)glycyl)pyrrolidine-2-carboxamide] |
| < 100 | C[C@@H](NC(=O)[C@@H]1C[C@H](c2nccs2)CN1C(=O)CNC(=O)c1ccc2c(c1)-c1ccccc1C2(F)F)c1cc(C(=N)N)cs1 [Compound 172, (2S,4S)—N—((R)-1-(4-carbamimidoylthiophen-2-yl)ethyl)-1-((9,9-difluoro-9H-fluorene-3-carbonyl)glycyl)-4-(thiazol-2-yl)pyrrolidine-2-carboxamide] |
| < 100 | COC[C@@]1(F)C[C@@H](C(=O)N[C@H](C)c2cc(C(=N)N)cs2)N(C(=O)CNC(=O)c2ccc3c(c2)-c2ccccc2C3(C)C)C1 [Compound 139, (2S,4R)—N—((R)-1-(4-carbamimidoylthiophen-2-yl)ethyl)-1-((9,9-dimethyl-9H-fluorene-3-carbonyl)glycyl)-4-fluoro-4-(methoxymethyl) pyrrolidine-2-carboxamide] |

Same assay, conditions: Human complement C1s enzyme 1.16 nM, substrate Z-L-Lys-SBzl 100 μM, assay of Example 3; read-out: IC50 (Stars)

| SMILES | IC50 [nM] |
| --- | --- |
| COC[C@@]1(F)C[C@@H](C(=O)N[C@H](C)c2cc(C(=N)N)cs2)N(C(=O)CNC(=O)c2ccc3[nH]c4ccccc4c3c2)C1 [Compound 389, N-(2-((2S,4R)-2-(((R)-1-(4-carbamimidoylthiophen-2-yl)ethyl)carbamoyl)-4-fluoro-4-(methoxymethyl)pyrrolidin-1-yl)-2-oxoethyl)-9H-carbazole-3-carboxamide] | < 100 |
| C[C@@H](NC(=O)[C@@H]1CC2(CN1C(=O)CNC(=O)c1ccc3c(c1)-c1cc(F)ccc1C3(F)F)OCCO2)c1cc(C(=N)N)cs1 [Compound 225, (S)—N—((R)-1-(4-carbamimidoylthiophen-2-yl)ethyl)-7-((6,9,9-trifluoro-9H-fluorene-3-carbonyl)glycyl)-1,4-dioxa-7-azaspiro[4.4]nonane-8-carboxamide] | < 100 |
| C[C@@H](NC(=O)[C@@H]1CC2(CN1C(=O)CNC(=O)c1ncc(-c3ccccc3)cc1F)OCCO2)c1cc(C(=N)N)cs1 [Compound 347, (S)—N—((R)-1-(4-carbamimidoylthiophen-2-yl)ethyl)-7-((3-fluoro-5-phenylpicolinoyl)glycyl)-1,4-dioxa-7-azaspiro[4.4]nonane-8-carboxamide] | < 100 |
| COC[C@@]1(F)C[C@@H](C(=O)N[C@H](C)c2cc(C(=N)N)cs2)N(C(=O)CNC(=O)c2ccc3c(c2)oc2ccccc23)C1 [Compound 360, (2S,4R)—N—((R)-1-(4-carbamimidoylthiophen-2-yl)ethyl)-1-((dibenzo[b,d]furan-3-carbonyl)glycyl)-4-fluoro-4-(methoxymethyl)pyrrolidine-2-carboxamide] | < 100 |

Now from value to molecule:

| IC50 [nM] | SMILES |
| --- | --- |
| < 100 | C[C@@H](NC(=O)[C@@H]1C[C@](F)(Cn2ccnn2)CN1C(=O)CNC(=O)c1ccc2c(c1)-c1ccccc1C2(F)F)c1cc(C(=N)N)cs1 [Compound 260, (2S,4R)-4-((1H-1,2,3-triazol-1-yl)methyl)-N—((R)-1-(4-carbamimidoylthiophen-2-yl)ethyl)-1-((9,9-difluoro-9H-fluorene-3-carbonyl)glycyl)-4-fluoropyrrolidine-2-carboxamide] |
| < 100 | C[C@@H](NC(=O)[C@@H]1C[C@@H](S(C)(=O)=O)CN1C(=O)CNC(=O)c1ccc2c(c1)C(F)(F)c1ccccc1-2)c1cc(C(=N)N)cs1 [Compound 265, (2S,4R)—N—((R)-1-(4-carbamimidoylthiophen-2-yl)ethyl)-1-((9,9-difluoro-9H-fluorene-2-carbonyl)glycyl)-4-(methylsulfonyl)pyrrolidine-2-carboxamide] |
| < 100 | COC(=O)/N=C(/N)c1csc([C@@H](C)NC(=O)[C@@H]2C[C@](F)(CF)CN2C(=O)CNC(=O)c2ccc3c(c2)-c2ccccc2C3(F)F)c1 [Compound 250, methyl ((E)-amino(5-((R)-1-((2S,4R)-1-((9,9-difluoro-9H-fluorene-3-carbonyl)glycyl)-4-fluoro-4-(fluoromethyl)pyrrolidine-2-carboxamido)ethyl)thiophen-3-yl)methylene)carbamate] |

Same assay, conditions: Human complement C1s enzyme 1.16 nM, substrate Z-L-Lys-SBzl; assay of Example 3; read-out: IC50 (Stars)

| IC50 [nM] | SMILES |
| --- | --- |
| < 100 | COC[C@@]1(F)C[C@@H](C(=O)N[C@H](CO)c2cc(C(=N)N)cs2)N(C(=O)CNC(=O)c2ccc3c(c2)-c2ccccc2C3(F)F)C1 [Compound 408, (2S,4R)—N—((R)-1-(4-carbamimidoylthiophen-2-yl)-2-hydroxyethyl)-1-((9,9-difluoro-9H-fluorene-3-carbonyl)glycyl)-4-fluoro-4-(methoxymethyl)pyrrolidine-2-carboxamide] |
